These compounds were tested on test plant species (assay: Post-emergent herbicidal activity test (greenhouse, foliar spray, visual growth reduction)). Details: post-emergence, 336 h, ECHCG: barnyardgrass (Echinochloa crus-galli), 140 g ai/ha, 14 days after application, read-out: Visual Growth Reduction (%) 14 Days After Application, ECHCG.
Format: in vivo
Method in brief: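 Greenhouse plants at first–second true leaf stage sprayed overhead at 187 L/ha with compound in acetone/water/isopropanol/DMSO/crop oil/X-77 carrier; controls received solvent blank. Injury rated visually after 14 d on a 0–100% scale versus untreated and control plants, converted to growth reduction.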

| Compound | pest or weed control at 140 g/ha [%] |
| --- | --- |
| COC(=O)c1nc(-c2ccc(C=O)c(F)c2OC)c(F)cc1Cl [F357, methyl 3-chloro-5-fluoro-6-(3-fluoro-4-formyl-2-methoxyphenyl)picolinate] | 0 to 29 |
| COC(=O)c1nc(-c2ccc(C(F)F)c(F)c2OC)c(F)cc1Cl [F253, methyl 3-chloro-6-(4-(difluoromethyl)-3-fluoro-2-methoxyphenyl)-5-fluoropicolinate] | 60 to 74 |

Same assay, conditions: post-emergence, 336 h, IPOHE: ivy-leaf morning glory (Ipomoea hederacea), 140 g ai/ha, 14 days after application, read-out: Visual Growth Reduction (%) 14 Days After Application, IPOHE

| Compound | pest or weed control at 140 g/ha [%] |
| --- | --- |
| COC(=O)c1nc(-c2ccc(C=O)c(F)c2OC)c(F)cc1Cl [F357, methyl 3-chloro-5-fluoro-6-(3-fluoro-4-formyl-2-methoxyphenyl)picolinate] | 0 to 29 |
| COC(=O)c1nc(-c2ccc(C(F)F)c(F)c2OC)c(F)cc1Cl [F253, methyl 3-chloro-6-(4-(difluoromethyl)-3-fluoro-2-methoxyphenyl)-5-fluoropicolinate] | 95 to 100 |

Same assay, conditions: post-emergence, 336 h, KCHSC: kochia (Bassia scoparia), 140 g ai/ha, 14 days after application, read-out: Visual Growth Reduction (%) 14 Days After Application, KCHSC

| Compound | pest or weed control at 140 g/ha [%] |
| --- | --- |
| COC(=O)c1nc(-c2ccc(C=O)c(F)c2OC)c(F)cc1Cl [F357, methyl 3-chloro-5-fluoro-6-(3-fluoro-4-formyl-2-methoxyphenyl)picolinate] | 0 to 29 |
| COC(=O)c1nc(-c2ccc(C(F)F)c(F)c2OC)c(F)cc1Cl [F253, methyl 3-chloro-6-(4-(difluoromethyl)-3-fluoro-2-methoxyphenyl)-5-fluoropicolinate] | 95 to 100 |

Same assay, conditions: post-emergence, 336 h, ORYSA: rice (Oryza sativa), 140 g ai/ha, 14 days after application, read-out: Visual Growth Reduction (%) 14 Days After Application, ORYSA

| Compound | pest or weed control at 140 g/ha [%] |
| --- | --- |
| COC(=O)c1nc(-c2ccc(C=O)c(F)c2OC)c(F)cc1Cl [F357, methyl 3-chloro-5-fluoro-6-(3-fluoro-4-formyl-2-methoxyphenyl)picolinate] | 0 to 29 |
| COC(=O)c1nc(-c2ccc(C(F)F)c(F)c2OC)c(F)cc1Cl [F253, methyl 3-chloro-6-(4-(difluoromethyl)-3-fluoro-2-methoxyphenyl)-5-fluoropicolinate] | 0 to 29 |

Same assay, conditions: post-emergence, 336 h, SETFA: giant foxtail (Setaria faberi), 140 g ai/ha, 14 days after application, read-out: Visual Growth Reduction (%) 14 Days After Application, SETFA

| Compound | pest or weed control at 140 g/ha [%] |
| --- | --- |
| COC(=O)c1nc(-c2ccc(C=O)c(F)c2OC)c(F)cc1Cl [F357, methyl 3-chloro-5-fluoro-6-(3-fluoro-4-formyl-2-methoxyphenyl)picolinate] | 0 to 29 |
| COC(=O)c1nc(-c2ccc(C(F)F)c(F)c2OC)c(F)cc1Cl [F253, methyl 3-chloro-6-(4-(difluoromethyl)-3-fluoro-2-methoxyphenyl)-5-fluoropicolinate] | 0 to 29 |

Same assay, conditions: post-emergence, 336 h, SORVU: grain sorghum (Sorghum vulgare), 140 g ai/ha, 14 days after application, read-out: Visual Growth Reduction (%) 14 Days After Application, SORVU

| Compound | pest or weed control at 140 g/ha [%] |
| --- | --- |
| COC(=O)c1nc(-c2ccc(C=O)c(F)c2OC)c(F)cc1Cl [F357, methyl 3-chloro-5-fluoro-6-(3-fluoro-4-formyl-2-methoxyphenyl)picolinate] | 0 to 29 |
| COC(=O)c1nc(-c2ccc(C(F)F)c(F)c2OC)c(F)cc1Cl [F253, methyl 3-chloro-6-(4-(difluoromethyl)-3-fluoro-2-methoxyphenyl)-5-fluoropicolinate] | 45 to 59 |

Same assay, conditions: post-emergence, 336 h, STEME: common chickweed (Stellaria media), 140 g ai/ha, 14 days after application, read-out: Visual Growth Reduction (%) 14 Days After Application, STEME

| Compound | pest or weed control at 140 g/ha [%] |
| --- | --- |
| COC(=O)c1nc(-c2ccc(C=O)c(F)c2OC)c(F)cc1Cl [F357, methyl 3-chloro-5-fluoro-6-(3-fluoro-4-formyl-2-methoxyphenyl)picolinate] | 0 to 29 |
| COC(=O)c1nc(-c2ccc(C(F)F)c(F)c2OC)c(F)cc1Cl [F253, methyl 3-chloro-6-(4-(difluoromethyl)-3-fluoro-2-methoxyphenyl)-5-fluoropicolinate] | 0 to 29 |

Same assay, conditions: post-emergence, 336 h, TRZAS: wheat, spring (Triticum aestivum), 140 g ai/ha, 14 days after application, read-out: Visual Growth Reduction (%) 14 Days After Application, TRZAS

| Compound | pest or weed control at 140 g/ha [%] |
| --- | --- |
| COC(=O)c1nc(-c2ccc(C=O)c(F)c2OC)c(F)cc1Cl [F357, methyl 3-chloro-5-fluoro-6-(3-fluoro-4-formyl-2-methoxyphenyl)picolinate] | 0 to 29 |
| COC(=O)c1nc(-c2ccc(C(F)F)c(F)c2OC)c(F)cc1Cl [F253, methyl 3-chloro-6-(4-(difluoromethyl)-3-fluoro-2-methoxyphenyl)-5-fluoropicolinate] | 0 to 29 |

Same assay, conditions: post-emergence, 336 h, blackgrass (Alopecurus myosuroides), 14 Days After Application, 140 g ai/ha, read-out: Visual Growth Reduction (%) ALOMY

| Compound | pest or weed control at 140 g/ha [%] |
| --- | --- |
| COC(=O)c1nc(-c2ccc(C=O)c(F)c2OC)c(F)cc1Cl [F357, methyl 3-chloro-5-fluoro-6-(3-fluoro-4-formyl-2-methoxyphenyl)picolinate] | 0 to 29 |
| COC(=O)c1nc(-c2ccc(C(F)F)c(F)c2OC)c(F)cc1Cl [F253, methyl 3-chloro-6-(4-(difluoromethyl)-3-fluoro-2-methoxyphenyl)-5-fluoropicolinate] | 0 to 29 |

Same assay, conditions: post-emergence, 336 h, canada thistle (Cirsium arvense), 14 Days After Application, 140 g ai/ha, read-out: Visual Growth Reduction (%) CIRAR

| Compound | pest or weed control at 140 g/ha [%] |
| --- | --- |
| COC(=O)c1nc(-c2ccc(C=O)c(F)c2OC)c(F)cc1Cl [F357, methyl 3-chloro-5-fluoro-6-(3-fluoro-4-formyl-2-methoxyphenyl)picolinate] | 0 to 29 |
| COC(=O)c1nc(-c2ccc(C(F)F)c(F)c2OC)c(F)cc1Cl [F253, methyl 3-chloro-6-(4-(difluoromethyl)-3-fluoro-2-methoxyphenyl)-5-fluoropicolinate] | 95 to 100 |

Same assay, conditions: post-emergence, 336 h, crabgrass (Digitaria sanguinalis), 14 Days After Application, 140 g ai/ha, read-out: Visual Growth Reduction (%) DIGSA

| Compound | pest or weed control at 140 g/ha [%] |
| --- | --- |
| COC(=O)c1nc(-c2ccc(C=O)c(F)c2OC)c(F)cc1Cl [F357, methyl 3-chloro-5-fluoro-6-(3-fluoro-4-formyl-2-methoxyphenyl)picolinate] | 0 to 29 |
| COC(=O)c1nc(-c2ccc(C(F)F)c(F)c2OC)c(F)cc1Cl [F253, methyl 3-chloro-6-(4-(difluoromethyl)-3-fluoro-2-methoxyphenyl)-5-fluoropicolinate] | 0 to 29 |

Same assay, conditions: post-emergence, 336 h, lambsquarters (Chenopodium album), 14 Days After Application, 140 g ai/ha, read-out: Visual Growth Reduction (%) CHEAL

| Compound | pest or weed control at 140 g/ha [%] |
| --- | --- |
| COC(=O)c1nc(-c2ccc(C=O)c(F)c2OC)c(F)cc1Cl [F357, methyl 3-chloro-5-fluoro-6-(3-fluoro-4-formyl-2-methoxyphenyl)picolinate] | 0 to 29 |
| COC(=O)c1nc(-c2ccc(C(F)F)c(F)c2OC)c(F)cc1Cl [F253, methyl 3-chloro-6-(4-(difluoromethyl)-3-fluoro-2-methoxyphenyl)-5-fluoropicolinate] | 95 to 100 |

Same assay, conditions: post-emergence, 336 h, redroot pigweed (Amaranthus retroflexus), 14 Days After Application, 140 g ai/ha, read-out: Visual Growth Reduction (%) AMARE

| Compound | pest or weed control at 140 g/ha [%] |
| --- | --- |
| COC(=O)c1nc(-c2ccc(C=O)c(F)c2OC)c(F)cc1Cl [F357, methyl 3-chloro-5-fluoro-6-(3-fluoro-4-formyl-2-methoxyphenyl)picolinate] | 0 to 29 |
| COC(=O)c1nc(-c2ccc(C(F)F)c(F)c2OC)c(F)cc1Cl [F253, methyl 3-chloro-6-(4-(difluoromethyl)-3-fluoro-2-methoxyphenyl)-5-fluoropicolinate] | 95 to 100 |

Same assay, conditions: post-emergence, 336 h, wild oat (Avena fatua), 14 Days After Application, 140 g ai/ha, read-out: Visual Growth Reduction (%) AVEFA

| Compound | pest or weed control at 140 g/ha [%] |
| --- | --- |
| COC(=O)c1nc(-c2ccc(C=O)c(F)c2OC)c(F)cc1Cl [F357, methyl 3-chloro-5-fluoro-6-(3-fluoro-4-formyl-2-methoxyphenyl)picolinate] | 0 to 29 |
| COC(=O)c1nc(-c2ccc(C(F)F)c(F)c2OC)c(F)cc1Cl [F253, methyl 3-chloro-6-(4-(difluoromethyl)-3-fluoro-2-methoxyphenyl)-5-fluoropicolinate] | 0 to 29 |

Same assay, conditions: post-emergence, 336 h, yellow nutsedge (Cyperus esculentus), 14 Days After Application, 140 g ai/ha, read-out: Visual Growth Reduction (%) CYPES

| Compound | pest or weed control at 140 g/ha [%] |
| --- | --- |
| COC(=O)c1nc(-c2ccc(C=O)c(F)c2OC)c(F)cc1Cl [F357, methyl 3-chloro-5-fluoro-6-(3-fluoro-4-formyl-2-methoxyphenyl)picolinate] | 0 to 29 |
| COC(=O)c1nc(-c2ccc(C(F)F)c(F)c2OC)c(F)cc1Cl [F253, methyl 3-chloro-6-(4-(difluoromethyl)-3-fluoro-2-methoxyphenyl)-5-fluoropicolinate] | 0 to 29 |

Source: patent US20230017045A1, “PYRIDINE AND PYRIMIDINE CARBOXYLATE HERBICIDES AND METHODS OF USE THEREOF” (Dow AgroSciences LLC, priority 2017, published 2023)
